{
  "source": "paper PMC7738871",
  "about": "“Covalent modification of Keap1 at Cys77 and Cys434 by pubescenoside a suppresses oxidative stress-induced NLRP3 inflammasome activation in myocardial ischemia-reperfusion injury” (Theranostics, 2021)",
  "key": {"[1]": {"test_system": "LAD-induced myocardial ischemia-reperfusion model in mice", "assay": "LAD-induced myocardial ischemia-reperfusion model", "type": "in vivo, mouse", "protocol": "(§1) The experimental procedures and protocols were approved by the Committee on Ethical USE of Animals of International Institute for Translational Chinese Medicine, Guangzhou University of Chinese Medicine (No. IITCM-20180115). Adult male C57BL/6 mice were purchased from the Laboratory Animal Center, Sun Yat-Sen University (Guangzhou, Guangdong, China), and Nrf2 knockout mice were obtained from Riken. Adult male C57BL/6 or Nrf2 knockout mice were treated with 30 mg/kg PBA or an equal volume of vehicle 15 min prior to reperfusion. Mice were divided into 6 groups: (1) Wild-type sham (n = 10): C57BL/6 mice received vehicle, as the sham group; (2) Wild-type AMI/R group (n = 10): C57BL/6 mice received vehicle (i.p.) 15 min before reperfusion; (3) Wild-type AMI/R plus PBA group (n = 10): C57BL/6 mice received 30 mg/kg PBA (i.p.) 15 min before reperfusion; (4) Nrf2 knockout sham (n = 8) : Nrf2 knockout mice received vehicle (i.p.), as in the sham group; (5) Nrf2 knockout AMI/R group (n = 8): Nrf2 knockout mice received vehicle (i.p.) 15 min before reperfusion; (6) Nrf2 knockout AMI/R plus PBA group (n = 8): Nrf2 knockout mice received 30 mg/kg PBA (i.p.) 15 min before reperfusion. PBA was dissolved in 0.9% NaCl buffer containing 2% EtOH. The vehicle was 0.9% NaCl buffer containing 2% EtOH.\n(§2) The C57BL/6 mice or Nrf2 knockout mice underwent myocardial ischemia-reperfusion injury as described previously. In brief, mice were anaesthetized by i.p. injection of sodium pentobarbital at a dose of 50 mg/kg and ventilated under a pressure-control VentStar R415 ventilator (RWD Life Science Inc., Shenzhen, China). Following thoracotomy between the 3rd and 4th intercostal spaces, the mouse heart was exposed. The LAD was ligated with an 8-0 silk suture and the PE10 tube for 30 min. PBA and vehicle were i.p. injected 15 min prior to reperfusion. After 30 min of ischemia, the suture with PE10 tube was removed. At the end of 24 h of reperfusion, the LAD was relegated, and 1% Evans blue dye was injected to measure the area at risk (AAR). The hearts of the mice were collected, and frozen at -80 °C for 10 min and cut into 5 slices. The slices were incubated with 1% 2,3,5-triphenyltetrazolium chloride (TTC, Santa Cruz, USA) at 37 °C for 15 min and fixed with 4% paraformaldehyde overnight. The slices were captured and the areas of AAR and IA were quantified by using ImageJ software.\n(§3) Hemodynamic measurements were performed using a PV-loop catheter (Transonic Systems Inc., Ithaca, NY, USA). Hemodynamic measurements were analysed using Ponemah 7700 modules software according to a standardized protocol. The maximum rate of rise of left ventricular pressure increase (+dp/dtmax) and the maximum rate of rise of left ventricular pressure decrease (-dp/dtmax) were calculated for all mice.\nEchocardiography was performed on mice at the end of reperfusion. In brief, mice were re-anesthetized with isoflurane and subjected to the Vevo 2100 System (VisualSonics Inc., Toronto, Canada). M-mode was used to obtain LV dimensions in diastole and systole according to the standard procedures and calculations. Left ventricular end systolic diameter (LVESD), left ventricular end diastolic diameter (LVEDD), left ventricular end systolic volume (LVSV) and left ventricular end diastolic volume (LVDV) were measured. And the left ventricular ejection fraction (LVEF) and left ventricular fractional shortening (LVFS) values were calculated using Vevostrain software as parameters indicating cardiac function."}, "[2]": {"test_system": "Nrf2-/- mice under AMI/R injury", "assay": "LAD-induced AMI/R in Nrf2-/- mice", "type": "in vivo, mouse", "protocol": "as §1, §2, §3"}, "NLRP3 inflammasome": {"test_system": "NLRP3 inflammasome", "assay": "OGD/R-induced NLRP3 inflammasome activation in primary cardiomyocytes", "type": "cell-based, mouse", "conditions": "OGD 3 h, reperfusion 18 h, dose-dependent", "protocol": "The heart was removed from the neonatal C57BL/6 mice and cut into 1 mm^3 pieces in ice […] buffer. The tissues were digested with the mixture of 0.125% trypsin (Gibco, 15090-046) and 0.1% type II collagenase (Gibco, 17101-015) 6 min at 37 °C for three times until the tissues were completely digested. The cells were harvested and seeded in a dish. After 90 min of incubation, the cell culture medium was collected and centrifuged. The centrifuged cardiomyocytes were harvested, seeded on 0.1 % gelatin-coated culture plates with DMEM containing 10% FBS and […] Brdu, and incubated in a 37°C incubator.\nTotal protein was isolated from H9c2 cells, primary mouse cardiomyocytes, RAW264.7 cells and heart tissue using 1X RIPA buffer containing phosphatase and proteinase inhibitors at 4 °C. […] After the membranes was washed by TBST buffer for three times, they were incubated with horseradish peroxidase (HRP)-conjugated secondary mouse or rabbit antibodies (1:3,000 dilution) at room temperature (RT) for 1.5 h and then detected by SuperEnhanced chemiluminescence (ECL) reaction reagents (GBCBIO Technologies Inc., Guangzhou, Guangdong, China). […] After letting the membranes stand for 1-2 min, the bands of the respective proteins were detected with the exposure time of 10 ~60 s."}, "[3]": {"conditions": "30 mg/kg i.p., 24 hours after AMI/R"}},
  "data": [
    {"molecule": "C=C(COC(=O)C=Cc1ccc(O)c(O)c1)C(O)COC1OC(CO)C(O)C(O)C1O", "note": "(centres unmarked) [PBA, pubescenoside A]", "values": [
      {"measurement": "myofibrillar structure (H&E staining)", "setting": "[1]; 30 mg/kg", "result": "preserved myofibrillar structure"},
      {"measurement": "recruitment of inflammatory cells (H&E staining)", "setting": "[1]; 30 mg/kg", "result": "reduced the recruitment of inflammatory cells"},
      {"measurement": "cardiac infarct size", "setting": "[1]; 30 mg/kg i.p. 15 min before reperfusion, 30 min ischemia, 24 h reperfusion", "result": "significantly reduce"},
      {"measurement": "level of CK-MB", "setting": "[1]; 30 mg/kg i.p., 30 min ischemia, 24 h reperfusion, blood, ELISA", "result": "significantly reduce"},
      {"measurement": "+dp/dtmax", "setting": "[1]; [3]", "result": "increasing"},
      {"measurement": "-dp/dtmax", "setting": "[1]; [3]", "result": "increasing"},
      {"measurement": "LVEF", "setting": "[1]; [3]", "result": "increasing"},
      {"measurement": "LVESD", "setting": "[1]; [3]", "result": "decreasing"},
      {"measurement": "LVFS", "setting": "[1]; [3]", "result": "increasing"},
      {"measurement": "LVSV", "setting": "[1]; [3]", "result": "decreasing"},
      {"measurement": "NLRP3 inflammasome activation in heart tissue", "setting": "[1]; AMI/R-injured mice, western blot", "result": "attenuated"},
      {"measurement": "inflammatory cells infiltration and disturbed myofibrillar structure (H&E staining)", "setting": "[2]", "result": "could not suppress"},
      {"measurement": "cardioprotective effect", "setting": "[2]; 30 mg/kg i.p., AMI/R", "result": "disappeared"},
      {"measurement": "decrease effect of CK-MB level", "setting": "[2]; 30 mg/kg i.p., AMI/R", "result": "blocked"},
      {"measurement": "increase effect of -dp/dtmax and -dp/dtmax", "setting": "[2]; 30 mg/kg i.p., AMI/R", "result": "blocked"},
      {"measurement": "suppressive effect on the NLRP3 inflammasome in heart tissue", "setting": "[2]; WB analysis", "result": "blocked"},
      {"measurement": "OGD/R-induced inflammasome activation (NLRP3, cleaved-caspase1, mature IL-1β)", "setting": "NLRP3 inflammasome", "result": "substantially inhibited"}
    ]}
  ]
}
